Measurements as given in ChEMBL document CHEMBL1146803, “Structure activity studies of ring E analogues of methyllycaconitine. Part 2: Synthesis of antagonists to the alpha3beta4* nicotinic acetylcholine receptors through modifications to the ester” (Bioorg Med Chem Lett, 2004).

molecular target: T1, Neuronal acetylcholine receptor; alpha3/beta4 (Homo sapiens, UniProt P30926+P32297); test: Effect on alpha3-beta4 neuronal nicotinic acetylcholine receptor-stimulated adrenal catecholamine secretion; assay type: functional
T1 sequence (P30926 whole entry): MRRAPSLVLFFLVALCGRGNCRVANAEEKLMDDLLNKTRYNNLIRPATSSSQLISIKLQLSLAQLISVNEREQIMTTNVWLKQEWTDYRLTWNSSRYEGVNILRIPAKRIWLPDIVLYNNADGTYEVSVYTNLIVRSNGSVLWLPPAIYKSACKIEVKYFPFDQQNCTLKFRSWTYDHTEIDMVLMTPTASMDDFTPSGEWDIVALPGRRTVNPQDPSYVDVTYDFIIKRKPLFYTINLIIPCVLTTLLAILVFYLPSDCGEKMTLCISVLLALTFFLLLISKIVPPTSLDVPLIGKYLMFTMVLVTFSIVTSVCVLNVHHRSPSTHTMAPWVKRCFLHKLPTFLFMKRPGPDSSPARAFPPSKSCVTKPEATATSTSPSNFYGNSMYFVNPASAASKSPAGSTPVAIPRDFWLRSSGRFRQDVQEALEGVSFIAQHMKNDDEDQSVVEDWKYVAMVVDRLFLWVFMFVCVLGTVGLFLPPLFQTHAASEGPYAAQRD
T1 sequence (P32297 whole entry): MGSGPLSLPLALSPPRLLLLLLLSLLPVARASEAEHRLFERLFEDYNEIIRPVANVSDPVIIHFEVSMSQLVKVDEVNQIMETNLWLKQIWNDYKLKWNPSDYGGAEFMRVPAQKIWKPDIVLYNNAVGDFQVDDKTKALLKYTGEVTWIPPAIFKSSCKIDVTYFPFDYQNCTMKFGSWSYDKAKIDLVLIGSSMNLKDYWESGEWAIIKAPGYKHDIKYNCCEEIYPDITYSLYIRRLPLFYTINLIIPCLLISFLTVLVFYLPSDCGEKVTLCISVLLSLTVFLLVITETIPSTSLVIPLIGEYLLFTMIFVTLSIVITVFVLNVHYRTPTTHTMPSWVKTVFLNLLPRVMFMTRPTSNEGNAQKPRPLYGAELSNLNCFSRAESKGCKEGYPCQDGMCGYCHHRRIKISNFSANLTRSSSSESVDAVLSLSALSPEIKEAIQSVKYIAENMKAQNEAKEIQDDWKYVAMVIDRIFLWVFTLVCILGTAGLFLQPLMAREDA

Point of comparison: CCCCCCCCC1CC(=O)N(c2ccccc2C(=O)OCC2CCCN(CCCc3ccccc3)C2)C1=O (centres undefined), IC50 1300 nM. Against it:
- O=C(OCC1CCCN(CCCc2ccccc2)C1)c1ccccc1N1C(=O)CC(C2CCCC2)C1=O (centres undefined) — within 1.5-fold, 1200 nM
- O=C(OCC1CCCN(CCCc2ccccc2)C1)c1ccccc1-c1ccccc1 (centres undefined) — within 1.5-fold, 1700 nM
- CC1(C)CC(=O)N(c2ccccc2C(=O)OCC2CCCN(CCCc3ccccc3)C2)C1=O (centres undefined) — 5.8-fold higher, 7500 nM
- CC(=O)Nc1ccccc1C(=O)OCC1CCCN(CCCc2ccccc2)C1 (centres undefined) — 6.5-fold higher, 8400 nM
- CC(C)C1CC(=O)N(c2ccccc2C(=O)OCC2CCCN(CCCc3ccccc3)C2)C1=O (centres undefined) — 1.9-fold higher, 2500 nM
- CCN1C[C@]2(COC(=O)c3ccccc3N3C(=O)C[C@H](C)C3=O)CC[C@H](OC)[C@@]34[C@@H]5C[C@H]6[C@H](OC)[C@@H]5[C@](O)(C[C@@H]6OC)[C@](O)([C@@H](OC)[C@H]23)[C@@H]14 [METHYLLYCACONITINE] — 2-fold higher, 2600 nM
- C=CCC1CC(=O)N(c2ccccc2C(=O)OCC2CCCN(CCCc3ccccc3)C2)C1=O (centres undefined) — within 1.5-fold, 1700 nM
- COc1ccccc1C(=O)OCC1CCCN(CCCc2ccccc2)C1 (centres undefined) — 2.5-fold higher, 3200 nM
- CC1C(=O)N(c2ccccc2C(=O)OCC2CCCN(CCCc3ccccc3)C2)C(=O)C1C (centres undefined) — 4.6-fold higher, 6000 nM
- O=C(OCC1CCCN(CCCc2ccccc2)C1)c1ccc(-c2ccccc2)cc1 (centres undefined) — 2.3-fold higher, 3000 nM
- CCCCC1CC(=O)N(c2ccccc2C(=O)OCC2CCCN(CCCc3ccccc3)C2)C1=O (centres undefined) — within 1.5-fold, 1500 nM
- O=C(OCC1CCCN(CCCc2ccccc2)C1)c1ccccc1F (centres undefined) — 4-fold higher, 5200 nM
- O=C(OCC1CCCN(CCCc2ccccc2)C1)c1ccccc1C(F)(F)F (centres undefined) — 2.5-fold higher, 3200 nM
- CCC1CC(=O)N(c2ccccc2C(=O)OCC2CCCN(CCCc3ccccc3)C2)C1=O (centres undefined) — 3.5-fold higher, 4500 nM
- O=C(OCC1CCCN(CCCc2ccccc2)C1)c1ccccc1N1C(=O)CC(Cc2ccccc2)C1=O (centres undefined) — the same, 1300 nM
- O=C(OCC1CCCN(CCCc2ccccc2)C1)c1ccccc1N1C(=O)c2ccccc2C1=O (centres undefined) — the same, 1300 nM
- CC1CC(=O)N(c2ccccc2C(=O)OCC2CCCN(CCc3ccccc3)C2)C1=O (centres undefined) — 8.8-fold higher, 11400 nM

molecular target: T1, Neuronal acetylcholine receptor; alpha3/beta4; test: Inhibitory activity against nicotinic acetylcholine receptor alpha3-beta4; assay type: protein-complex assay

Point of comparison: C[N+](C)(C)CCCCCCCCCC[N+](C)(C)C [DECAMETHONIUM], IC50 ~1700 nM. Against it:
- COc1cc2c3cc1Oc1cc(ccc1O)C[C@@H]1c4c(cc(OC)c(O)c4Oc4ccc(cc4)C[C@@H]3N(C)CC2)CC[N+]1(C)C — within 1.5-fold, 2000 nM
- C[N+](C)(C)CCCCCC[N+](C)(C)C [HEXAMETHONIUM HYDROXIDE] — the same, ~1700 nM

molecular target: Neuronal acetylcholine receptor subunit alpha-7 (Homo sapiens, UniProt P36544); test: Affinity for nicotinic acetylcholine receptor alpha7
Sequence (P36544 whole entry): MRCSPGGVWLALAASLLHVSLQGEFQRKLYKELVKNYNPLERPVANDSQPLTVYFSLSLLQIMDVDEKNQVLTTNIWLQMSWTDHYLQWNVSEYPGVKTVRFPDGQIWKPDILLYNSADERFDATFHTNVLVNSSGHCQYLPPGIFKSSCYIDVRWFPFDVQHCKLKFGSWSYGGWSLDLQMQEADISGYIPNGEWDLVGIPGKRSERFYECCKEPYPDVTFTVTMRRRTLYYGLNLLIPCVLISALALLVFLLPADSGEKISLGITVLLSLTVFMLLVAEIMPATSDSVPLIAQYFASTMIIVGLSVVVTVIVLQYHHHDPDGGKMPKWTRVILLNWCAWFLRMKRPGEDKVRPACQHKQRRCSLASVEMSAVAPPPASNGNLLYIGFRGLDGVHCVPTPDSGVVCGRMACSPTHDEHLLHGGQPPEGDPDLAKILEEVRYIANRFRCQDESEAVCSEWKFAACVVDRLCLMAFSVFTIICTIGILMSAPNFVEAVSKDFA

CC1CC(=O)N(c2ccccc2C(=O)OCC2CCCN(CCc3ccccc3)C2)C1=O (centres undefined) gave an IC50 of 177000 nM.

molecular target: Neuronal acetylcholine receptor subunit alpha-3 (Homo sapiens, UniProt P32297); test: Inhibitory activity on nicotinic acetylcholine receptor alpha3
Sequence (P32297 whole entry): as the sequence (P32297 whole entry) above

Point of comparison: CC(C)N1CCCC(COC(=O)c2ccccc2N2C(=O)CCC2=O)C1 (centres undefined), IC50 ~20000 nM. Against it:
- CC1CC(=O)N(c2ccccc2C(=O)OCC2CCCN(C(C)C)C2)C1=O (centres undefined) — the same, ~20000 nM
